Laboratory results taken from ChEMBL document CHEMBL6078692, “Discovery of PF-07265028, A Selective Small Molecule Inhibitor of Hematopoietic Progenitor Kinase 1 (HPK1) for the Treatment of Cancer” (J Med Chem, 2024).
Values after ≈ are worked out from the molar mass of the structure shown.

Key:
[1] = molecular target: Mitogen-activated protein kinase kinase kinase kinase 1 (Homo sapiens, UniProt Q92918); assay: Inhibition of full-length recombinant human HPK1 (1 to 182 residues) extracted from baculovirus infected Sf21 cells using phospho-acceptor peptide as substrate incubated for 15 mins in presence of ATP by fluorescence based assay
Chain of Mitogen-activated protein kinase kinase kinase kinase 1 (Q92918 whole entry, the tested form may be a part): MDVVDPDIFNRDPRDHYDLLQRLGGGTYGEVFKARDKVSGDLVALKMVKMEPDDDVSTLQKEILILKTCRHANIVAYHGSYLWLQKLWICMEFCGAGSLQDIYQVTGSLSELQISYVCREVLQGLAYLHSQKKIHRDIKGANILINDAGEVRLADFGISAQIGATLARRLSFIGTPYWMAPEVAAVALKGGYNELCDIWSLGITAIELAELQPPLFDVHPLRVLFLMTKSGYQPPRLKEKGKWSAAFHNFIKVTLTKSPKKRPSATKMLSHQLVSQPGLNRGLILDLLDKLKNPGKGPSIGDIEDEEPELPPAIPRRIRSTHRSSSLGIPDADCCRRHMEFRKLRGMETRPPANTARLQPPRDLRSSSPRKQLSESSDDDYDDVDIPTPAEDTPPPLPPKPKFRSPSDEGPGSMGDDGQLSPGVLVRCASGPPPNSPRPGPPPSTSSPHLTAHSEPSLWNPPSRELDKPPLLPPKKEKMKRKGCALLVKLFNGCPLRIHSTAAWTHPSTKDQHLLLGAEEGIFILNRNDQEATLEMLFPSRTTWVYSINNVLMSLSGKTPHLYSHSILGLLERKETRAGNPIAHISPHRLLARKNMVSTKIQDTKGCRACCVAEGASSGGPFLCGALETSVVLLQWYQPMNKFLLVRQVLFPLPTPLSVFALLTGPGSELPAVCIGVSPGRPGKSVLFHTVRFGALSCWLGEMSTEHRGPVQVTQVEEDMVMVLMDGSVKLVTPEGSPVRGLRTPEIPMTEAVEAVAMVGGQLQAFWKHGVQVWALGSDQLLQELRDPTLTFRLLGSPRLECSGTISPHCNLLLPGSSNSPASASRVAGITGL

[2] = Cytotoxicity against PBMC (unknown origin) assessed as inhibition of ATP level incubated for 3 days by Cell Titer Glo assay; format: toxicity, cell-based
[3] = Induction of IL-2 production in human T cells pretreated for 30 mins followed by anti-CD3/CD28 stimulation for 24 hrs by MSD analysis; format: functional, cell-based; settings: T-cell
[4] = Lipophilicity, logD of compound in octanol/water by shake flask method; format: physicochemical
[5] = Selectivity ratio of IC50 for cytotoxicity against PBMC (unknown origin) assessed as inhibition of ATP level incubated for 3 days by Cell Titer Glo assay to IC50 for inhibition of SLP76 phosphorylation at Ser376 in human Jurkat cells incubated for 30 mins by HTRF assay; format: toxicity, cell-based; settings: read-out: Ratio IC50
Homo sapiens = species on record: Homo sapiens; assay: Selectivity ratio of Ki for N-terminal 6xHis-tagged human recombinant full-length LCK to Ki for full-length recombinant human HPK1 (1 to 182 residues) expressed in baculovirus infected Sf21 cells
[6] = Intrinsic clearance in human hepatocytes measured per million cells at 1 uM measured for 240 mins by LC-MS/MS analysis; format: ADME, cell-based, Hepatocyte; settings: read-out: CLH
[7] = Permeability in RRCK cells; format: ADME, cell-based, Canis lupus familiaris, MDCKII-LE; settings: dog, MDCK; read-out: permeability
[8] = Kinetic solubility of compound at pH 7.4 incubated for 24 hrs by MS/MS analysis; format: physicochemical; settings: buffer, read-out: Kinetic_solubility
[9] = Stability in human plasma assessed as half life measured for 120 mins by LC-MS/MS analysis; format: ADME, cell-free
[10] = Unbound clearance in monkey at 1 mg/kg, po or 0.5 mg/kg, iv; format: ADME, organism-based, Macaca mulatta; settings: rhesus monkey, in vivo
[11] = Clearance in mouse at 15 mg/kg, po or 1 mg/kg, iv; format: ADME, organism-based; settings: in vivo
[12] = Terminal half life in monkey at 1 mg/kg, po or 0.5 mg/kg, iv; format: ADME, organism-based, Macaca mulatta; settings: rhesus monkey, in vivo, read-out: beta t1/2 (converted)
[13] = Oral bioavailability in monkey at 1 mg/kg, po; format: ADME, organism-based, Macaca mulatta; settings: rhesus monkey, in vivo
[14] = Oral bioavailability in mouse at 15 mg/kg, po; format: ADME, organism-based; settings: in vivo
[15] = Volume of distribution at steady state in monkey at 1 mg/kg, po or 0.5 mg/kg, iv; format: ADME, organism-based, Macaca mulatta; settings: rhesus monkey, in vivo
[16] = Tmax in monkey at 1 mg/kg, po or 0.5 mg/kg, iv; format: ADME, organism-based, Macaca mulatta; settings: rhesus monkey, in vivo
[17] = Unbound clearance in mouse at 15 mg/kg, po or 1 mg/kg, iv; format: ADME, organism-based; settings: in vivo
[18] = Terminal half life in mouse at 15 mg/kg, po or 1 mg/kg, iv; format: ADME, organism-based; settings: in vivo, read-out: beta t1/2 (converted)
[19] = Tmax in mouse at 15 mg/kg, po or 1 mg/kg, iv; format: ADME, organism-based; settings: in vivo
[20] = Clearance in monkey at 1 mg/kg, po or 0.5 mg/kg, iv; format: ADME, organism-based, Macaca mulatta; settings: rhesus monkey, in vivo
[21] = Volume of distribution at steady state in mouse at 15 mg/kg, po or 1 mg/kg, iv; format: ADME, organism-based; settings: in vivo

Row | Compound | IC50 [1] [nM] | IC50 at 3 days [2] [nM] | EC50 [3] [nM] | logD [4] | selectivity ratio at 3 days [5] | Ratio Ki (Homo sapiens) | hepatocyte CLint at 1 µM [6] [µL/min/1e6 cells] | Papp [7] [nm/s] | also measured
1 | CC[C@H]1CCc2nnc(-c3cccc(N4Cc5c(cc(N(C)C(C)C)nc5CNC)C4=O)n3)n21 | < 0.06 | 500 | 116 | 2.2 | 13 | – | – | – | –
2 | CC(C)n1cnnc1-c1cccc(NC(=O)c2cccc3c2OCC(N)C3)n1 (stereo not drawn) | 7.7 | – | – | 1.2 | – | > 65 | – | – | –
3 | CNCc1nc(N(C)C(C)C)cc2c1CN(c1cccc(-c3nnc4n3[C@@H](C)CC4)n1)C2=O | < 0.05 | 500 | 47 | 1.9 | 11 | – | – | – | –
4 | CNCc1nc(N(C)C)cc2c1CN(c1cccc(-c3nncn3C(C)C)n1)C2=O | 0.15 | – | – | 0.8 | – | 1600 | – | – | –
5 | CCCn1cnnc1-c1cccc(N2Cc3c(cc(N(C)C)nc3CNC)C2=O)n1 | 0.27 | 3500 | 97 | 1 | 29 | – | 5.2 | 177 | –
6 | CNCc1cc(OC)cc2c1CN(c1cccc(-c3nncn3C(C)C)n1)C2=O | 1.1 | 1700 | – | 1.1 | 5 | > 470 | 10 | 270 | solubility kinetic at 24 h [8]: 495 µM (≈ 194 µg/mL)
7 | CC(C)n1cnnc1-c1cccc(N2Cc3c(CO)cccc3C2=O)n1 | 22 | – | – | 2.1 | – | > 13 | – | – | solubility kinetic at 24 h [8]: < 0.1 µM
8 | CNCc1nc(N(C)C)cc2c1CN(c1cccc(-c3nncn3[C@@H](C)CC(F)(F)F)n1)C2=O | < 0.05 | – | – | 1.3 | – | > 260 | – | – | –
9 | CCCn1cnnc1-c1cccc(N2Cc3c(cc(N4CCC[C@H]4C)nc3CNC)C2=O)n1 | < 0.06 | 1100 | 38 | 2.1 | 32 | – | 23 | 151 | –
10 | CC(C)n1cnnc1-c1cccc(NC(=O)c2cccc3c2nc(CN)n3C)n1 | 10 | – | – | 1.7 | – | > 45 | – | – | –
11 | CCCn1cnnc1-c1cccc(N2Cc3c(cc(N(C)C(C)C)nc3CNC)C2=O)n1 | < 0.13 | 2100 | 74 | 2 | 24 | – | 15 | 193 | –
12 | CNCc1cc(OC)cc2c1CN(c1cccc(-c3nncn3[C@@H](C)CC(F)(F)F)n1)C2=O | 0.3 | 487 | – | 1.6 | 4 | 210 | 11 | 204 | solubility kinetic at 24 h [8]: 202 µM (≈ 93 µg/mL)
13 | CC[C@H](C)n1cnnc1-c1cccc(NC(=O)c2cccc3c2nc(CN)n3C)n1 | 2.7 | – | – | 2 | – | 37 | – | – | half-life [9]: 2.1 h
14 | CNCc1nc(N(C)C(C)C)cc2c1CN(c1cccc(-c3nnc4n3[C@@H](CF)CC4)n1)C2=O | 0.07 | 1300 | 64 | 1.6 | 25 | – | – | – | –
15 | COc1ccc2c(c1CN)CN(c1cccc(-c3nncn3[C@@H](C)CC(F)(F)F)n1)C2=O | 2.5 | – | – | 0.7 | – | > 140 | < 2.3 | 29 | solubility kinetic at 24 h [8]: 372 µM (≈ 166 µg/mL)
16 | CC[C@@H](N)c1nc(N2CCC[C@H]2C)cc2c1CN(c1cccc(-c3nncn3CC)n1)C2=O | < 0.09 | 2200 | 142 | 2.3 | 42 | – | – | – | –
17 | CCC(C)n1cnnc1-c1cccc(NC(=O)c2cccc3c2OCC(N)C3)n1 (stereo not drawn) | 2.2 | – | – | 1.7 | – | > 230 | – | – | half-life [9]: 3.38 h
18 | CC[C@@H](N)c1nc(N2CCC[C@H]2C)cc2c1CN(c1cccc(-c3nnc4n3[C@@H](C)CC4)n1)C2=O | – | 800 | 59 | 2.5 | – | – | 56 | 83 | CL free [10]: 8.58 L/h/kg; solubility kinetic at 24 h [8]: 260 µM (≈ 123 µg/mL); clearance [11]: 2.34 L/h/kg; half-life [12]: 4.3 h; bioavailability [13]: 20%; bioavailability [14]: 38%; Vdss [15]: 3.7 L/kg; Tmax [16]: 1 h; CL free [17]: 41.4 L/h/kg; half-life [18]: 3.3 h; Tmax [19]: 2 h; clearance [20]: 0.84 L/h/kg; Vdss [21]: 4.9 L/kg
19 | COc1ccc(CC#N)cc1C(=O)Nc1cccc(-c2nncn2C(C)C)n1 | 14 | – | – | 2.3 | – | 6 | – | – | –
20 | CCCn1c(C)nnc1-c1cccc(N2Cc3c(cc(N(C)C(C)C)nc3CNC)C2=O)n1 | < 0.17 | > 3300 | 154 | 2 | > 41 | – | – | – | –
21 | CC(C)n1cnnc1-c1cccc(N2Cc3c(CN)cccc3C2=O)n1 | 194 | – | – | 0.7 | – | > 3 | – | – | half-life [9]: > 6 h; solubility kinetic at 24 h [8]: > 600 µM
22 | C[C@@H]1CCCN1c1cc2c(c([C@@H](C)N)n1)CN(c1cccc(-c3nnc4n3[C@@H](C)CC4)n1)C2=O | < 0.05 | 1100 | 62 | 2.3 | 21 | – | – | – | –
